# Test results published in US6372261B1, “Process for producing Guilu ErXiangao” (Pharmaceutical Industry Technology and Development Center, priority 2000, dated 2002).
# Test system: leukopenia caused by 5-FU
# Assay: hemopoietic effect in animal experimentation: leukopenia caused by 5-FU in rats, blood cell counts
# Assay type: in vivo
# [1] = male rats, 5-FU 100 mg/kg orally twice on 8th day, blood after 14 days, mean ± SEM
# [2] = rats, 5-FU model, values of Table 1
# [3] = rats, p<0.01 vs control (5-FU), p<0.05 vs trial 1
smiles,measurement,setting,value
"O=c1[nH]cc(F)c(=O)[nH]1 [Trial 5-FU, 5-fluorouracil]",GrC. (granulocyte),[1],0.66 ± 0.11 × 10^3/μl
same,LymC. (lymphocyte),[1],2.21 ± 0.15 × 10^3/μl
same,MonoC. (monocyte),[1],0.84 ± 0.12 × 10^3/μl
same,Platelet,[1],983.5 ± 52.0 × 10^3/μl
same,RBC (red blood cell),[1],9.58 ± 0.14 × 10^6/μl
same,WBC (white blood cell),[1],3.70 ± 0.23 × 10^3/μl
same,granulocyte (mean),[2],0.66 ± 0.11 10^3/µL
same,lymphocyte (mean),[2],2.21 ± 0.15 10^3/µL
same,monocyte (mean),[2],0.84 ± 0.12 10^3/µL
same,white blood cells (mean),[2],3.7 ± 0.23 10^3/µL
same,effect on granulocytes (in words),"rats, p<0.01 vs control (5-FU) or vs trial 1",inhibited
same,effect on lymphocytes (in words),[3],inhibited
same,effect on monocytes (in words),[3],inhibited
same,effect on white blood cells (in words),"rats, unpaired student t test, p<0.01 vs control (5-FU) or vs trial 1",inhibited
